Measured values: patent US6822146B2, “Sulfonylurea-tolerant sunflower line M7” (priority 2000, dated 2004)
Where a name gives a salt, the structure may show the parent alone.

Tests used:
M5M7 = experiment: Test B greenhouse phytotoxicity, M5M7; assay type: in vivo, sunflower
Protocol: (§1) A greenhouse experiment was conducted to evaluate the spectrum of tolerance of three homozygous resistant mutants to various herbicides inhibiting acetolactate synthase (ALS) as their mode of action. The inbred lines tested were the 5th generation self-pollinated maintainers, M5M7, M5M11 and M5M12, as well as the 4th generation male sterile back-crosses BC4-M5M7, BC4-M5M11 and BC4-M5M12. Treatments of formulated herbicides were applied post-emergence at the 4-leaf stage. Application rates of the test herbicides were chosen to coincide with the rates commonly used in the crops for which they are registered. The application rate of imazethapyr was chosen to match the rate recommended to control parasitic weeds in sunflowers by L. García-Torres et al., Weed Technology 1995, 9, 819-824. Wild type H89 inbred sunflower was not included in this test, because the many of the tested herbicides are known to be efficacious in controlling volunteer sunflower as a weed. Treatments were replicated twice. […] A rating of 0% phytotoxicity means no crop injury.

M5M11 = experiment: Test B greenhouse phytotoxicity, M5M11; assay type: in vivo, sunflower
Protocol: as §1

M5M12 = experiment: Test B greenhouse phytotoxicity, M5M12; assay type: in vivo, sunflower
Protocol: as §1

BC4-M5M7 = experiment: Test B greenhouse phytotoxicity, BC4-M5M7; assay type: in vivo, sunflower
Protocol: as §1

BC4-M5M11 = experiment: Test B greenhouse phytotoxicity, BC4-M5M11; assay type: in vivo, sunflower
Protocol: as §1

BC4-M5M12 = experiment: Test B greenhouse phytotoxicity, BC4-M5M12; assay type: in vivo, sunflower
Protocol: as §1

[1] = test system: homozygous progeny of the three mutant sources; assay type: in vivo, sunflower; settings: Test B application rates, post-emergence
Protocol: as §1

BC4-M5M7 × PHA155 = experiment: Test C field phytotoxicity, BC4-M5M7 × PHA155; assay type: in vivo, sunflower
Text: (§2) A rating of 0% phytotoxicity means no crop injury.

BC4-M5M12 × PHA155 = experiment: Test C field phytotoxicity, BC4-M5M12 × PHA155; assay type: in vivo, sunflower
Text: as §2

Orobanche cumana = experiment: Test E control of Orobanche cumana in resistant sunflower hybrid; assay type: in vivo
Protocol: The effect of the various treatments was evaluated 35 days after sowing. The sunflower roots were cleaned by washing in water, and the presence of Orobanche nodules was determined visually and by weighing root wet mass in comparison to check plants free of Orobanche infestation. […] The nodules caused by Orobanche increased root weight, and a correlation (r=0.7) was found between visual scores and weight measurements. Thus the weighing technique could be used to corroborate visual efficacy scorings. Orobanche emergence was also scored but found to be less useful to evaluate treatment efficiency at the evaluation timing of this test.
(§3) Based on the results from Test D, a modified protocol was developed to include three timings of post-emergence treatment. The hybrid BC4-M5M12 (female parent)×PHA155 restorer line (male parent) described in Test C was used in this test. Various herbicide programs were tested using three replications. […] Seed coatings of these formulated herbicides were applied to 6 kg of seeds in such amount that considering the distribution of the coated seeds in each pot, the herbicide active ingredient (a.i.) application rates per hectare were as indicated.
(§4) The treatments were applied similar to the methods described for Test D. Pre-emergence applications were broadcast only, not soil incorporated. For pre-emergence application, the pots were sprayed using the high rates of the herbicides two days after sowing the sunflower seeds. Post-emergence treatments were applied at the 4-6 leaf stage of sunflower (corresponding to early stage of Orobanche attachment; identified as “T1”), the 6-8 leaf stage of sunflower (corresponding to the mid stage of Orobanche attachment; nodules <5 mm diameter; identified as “T2”) and 8-12 leaf stage of sunflower (corresponding to late stage of Orobanche attachment; identified as “T3”). The mid-stage applications included the high as well as low application rates of each herbicide.
(§5) For comparison were also included in this test other acetolactate synthase-inhibiting herbicides reported in the literature as giving good weed control of Orobanche (L. García-Torres et al., Weed Research 1994, 34, 395-402; L. García-Torres et al., Weed Technology 1995, 9, 819-824; J. Hershenhorn et al., Weed Technology 1998, 12, 108-114).

[2] = test system: BC4-M5M12 × PHA155 hybrid; experiment: Test E injury to sunflower hybrid; assay type: in vivo; settings: in vivo
Protocol: as §3, §4, §5

H89A × M4M11 = assay type: in vivo, sunflower; settings: variety G; 30 g a.i./ha post-emergence
Text: (§6) To generate the hybrids C, D and E, the fourth generation self-pollinated maintainer mutant lines M4M12, M4M11 and M4M7 were chemically sterilized by applying at the bud “star” flower stage a small amount of gibberellic acid solution to sterilize the pollen according to the general method described in Sunflower Science Technology, J. F. Carter ed. (Number 19 in the series “Agronomy”) pp. 339-386. This treatment enables maintainer plants to behave as CMS inbred lines and allows the production of heterozygous resistant hybrids, with the herbicide resistant source coming from the female side. Such crosses allowed evaluating the sexual effect of the mutation source when introduced on the female side of a cross as described in crosses C, D and E versus the male side of a cross as described in crosses F, G and H. Labels I, J and K identify third generation CMS mutant lines crossed with fourth generation maintainer lines to maintain the highly heritable mutant trait in a male sterile homozygous resistant environment. One skilled in sunflower breeding art understands the meaning of such crosses.
as §2

H89A × M4M12 = assay type: in vivo, sunflower; settings: variety F; 30 g a.i./ha post-emergence
Text: as §6, §2

H89A × M4M7 = assay type: in vivo, sunflower; settings: variety H; 30 g a.i./ha post-emergence
Text: as §6, §2

[3] = test system: Hybrid control: H89A × RHA274; assay type: in vivo, sunflower; settings: variety A; 30 g a.i./ha post-emergence
Text: as §6, §2

[4] = test system: Inbred line control: H89A; assay type: in vivo, sunflower; settings: variety B; 30 g a.i./ha post-emergence
Text: as §6, §2

GA-M4M12 × RHA274 = experiment: Test A field trial, phytotoxicity, variety C; assay type: in vivo, sunflower; settings: variety C; 30 g a.i./ha post-emergence
Text: as §6, §2

GA-M4M11 × RHA274 = experiment: Test A field trial, phytotoxicity, variety D; assay type: in vivo, sunflower; settings: variety D; 30 g a.i./ha post-emergence
Text: as §6, §2

GA-M4M7 × RHA274 = experiment: Test A field trial, phytotoxicity, variety E; assay type: in vivo, sunflower; settings: variety E; 30 g a.i./ha post-emergence
Text: as §6, §2

BC3-M4M12 = experiment: Test A field trial, phytotoxicity, variety I; assay type: in vivo, sunflower; settings: variety I; 30 g a.i./ha post-emergence
Text: as §6, §2

BC3-M4M11 = experiment: Test A field trial, phytotoxicity, variety J; assay type: in vivo, sunflower; settings: variety J; 30 g a.i./ha post-emergence
Text: as §6, §2

BC3-M4M7 = experiment: Test A field trial, phytotoxicity, variety K; assay type: in vivo, sunflower; settings: variety K; 30 g a.i./ha post-emergence
Text: as §6, §2

[5] = test system: Homozygous resistant inbred lines, BC3-M4M12 (I), BC3-M4M11 (J) and BC3-M4M7 (K); experiment: Test A summary, homozygous resistant inbred lines; settings: Test A application rates
Protocol: In a small field trial, the sunflower varieties described in Table 4 were sprayed post-emergence with a variety of sulfonylurea herbicide treatments.
Broadcast post-emergence applications of formulated sulfonylurea herbicides were performed at the 6-leaf development stage using four randomly distributed replications. Application rates were chosen to match the usual use rates of these herbicides in the crops they are registered in Europe. All herbicides except for metsulfuron-methyl were sprayed in combination with Citowet® non-ionic ethoxylated alcohol at 0.25% volume of formulated product per volume of water applied per hectare.
The evaluation of the maximum (i.e. peak) injury to sunflower varieties by sulfonylurea herbicides was measured by visual ratings, which are listed in Table 5. A rating of 0% phytotoxicity means no crop injury. […] A rating of 100% means the complete destruction of all plants.

[6] = postemergence 6.25 g a.i./ha, 7 DAT
[7] = postemergence 6.25 g a.i./ha, 15 DAT
[8] = postemergence 6.25 g a.i./ha, 30 DAT
[9] = postemergence 12.5 g a.i./ha, 7 DAT
[10] = postemergence 12.5 g a.i./ha, 15 DAT
[11] = postemergence 12.5 g a.i./ha, 30 DAT

## COc1cc(OC)nc(NC(=O)NS(=O)(=O)N(C)S(C)(=O)=O)n1 [Amidosulfuron, amidosulfuron]
M5M7; in vivo
  Maximum Phytotoxicity: 52.5%
M5M11; in vivo
  Maximum Phytotoxicity: 60%
M5M12; in vivo
  Maximum Phytotoxicity: 45%
BC4-M5M7; in vivo
  Maximum Phytotoxicity: 47.5%
BC4-M5M11; in vivo
  Maximum Phytotoxicity: 57.5%
BC4-M5M12; in vivo
  Maximum Phytotoxicity: 55%
[1]
  tolerance of the mutants: somewhat sensitive

## CCOC(=O)c1ccccc1S(=O)(=O)NC(=O)Nc1nc(Cl)cc(OC)n1 [Chlorimuron-ethyl, chlorimuron-ethyl]
BC4-M5M7 × PHA155; [6]
  Phytotoxicity Rating After Treatment: 83%
BC4-M5M7 × PHA155; [7]
  Phytotoxicity Rating After Treatment: 73%
BC4-M5M7 × PHA155; [8]
  Phytotoxicity Rating After Treatment: 67%
BC4-M5M7 × PHA155; [9]
  Phytotoxicity Rating After Treatment: 85%
BC4-M5M7 × PHA155; [10]
  Phytotoxicity Rating After Treatment: 83%
BC4-M5M7 × PHA155; [11]
  Phytotoxicity Rating After Treatment: 83%
BC4-M5M12 × PHA155; [6]
  Phytotoxicity Rating After Treatment: 70%
BC4-M5M12 × PHA155; [7]
  Phytotoxicity Rating After Treatment: 80%
BC4-M5M12 × PHA155; [8]
  Phytotoxicity Rating After Treatment: 68%
BC4-M5M12 × PHA155; [9]
  Phytotoxicity Rating After Treatment: 80%
BC4-M5M12 × PHA155; [10]
  Phytotoxicity Rating After Treatment: 90%
BC4-M5M12 × PHA155; [11]
  Phytotoxicity Rating After Treatment: 88%

## COC(=O)c1ccc(C(F)(F)F)nc1S(=O)(=O)NC(=O)Nc1nc(OC)cc(OC)n1 [Flupyrsulfuron-methyl-sodium]
M5M7; in vivo
  Maximum Phytotoxicity: 62.5%
M5M11; in vivo
  Maximum Phytotoxicity: 50%
M5M12; in vivo
  Maximum Phytotoxicity: 57.5%
BC4-M5M7; in vivo
  Maximum Phytotoxicity: 42.5%
BC4-M5M11; in vivo
  Maximum Phytotoxicity: 60%
BC4-M5M12; in vivo
  Maximum Phytotoxicity: 50%
[1]
  tolerance of the mutants: somewhat sensitive

## COC(=O)c1c(Cl)nn(C)c1S(=O)(=O)NC(=O)Nc1nc(OC)cc(OC)n1 [Halosulfuron-methyl, halosulfuron-methyl]
M5M7; M5M7, 45 g a.i./ha post-emergence 4-leaf stage
  Maximum Phytotoxicity: 50%
M5M11; M5M11, 45 g a.i./ha post-emergence 4-leaf stage
  Maximum Phytotoxicity: 60%
M5M12; M5M12, 45 g a.i./ha post-emergence 4-leaf stage
  Maximum Phytotoxicity: 60%
BC4-M5M7; BC4-M5M7, 45 g a.i./ha post-emergence 4-leaf stage
  Maximum Phytotoxicity: 60%
BC4-M5M11; BC4-M5M11, 45 g a.i./ha post-emergence 4-leaf stage
  Maximum Phytotoxicity: 65%
BC4-M5M12; BC4-M5M12, 45 g a.i./ha post-emergence 4-leaf stage
  Maximum Phytotoxicity: 65%
[1]
  tolerance of the mutants: somewhat sensitive

## CCc1cnc(C2=NC(C)(C(C)C)C(=O)N2)c(C(=O)O)c1 (stereo not shown) [Imazethapyr (ammonium salt), Imazethapyr]
M5M7; in vivo
  Maximum Phytotoxicity: 22.5%
M5M11; in vivo
  Maximum Phytotoxicity: 30%
M5M12; in vivo
  Maximum Phytotoxicity: 22.5%
BC4-M5M7; in vivo
  Maximum Phytotoxicity: 20%
BC4-M5M11; in vivo
  Maximum Phytotoxicity: 25%
BC4-M5M12; in vivo
  Maximum Phytotoxicity: 30%
[1]
  tolerance of the mutants: marginal tolerance
Orobanche cumana; Test E rates, metsulfuron-methyl compared with tribenuron-methyl
  relative efficacy in controlling Orobanche: less efficacious in controlling Orobanche
Orobanche cumana; pre-emergence 40 g a.i./ha
  Control: 60%
[2]
  Injury: 0%

## COC(=O)c1ccccc1S(=O)(=O)NC(=O)Nc1nc(OC(F)F)cc(OC(F)F)n1 [Primisulfuron-methyl, primisulfuron-methyl]
H89A × M4M11
  Maximum Phytotoxicity: 73%
H89A × M4M12
  Maximum Phytotoxicity: 66%
H89A × M4M7
  Maximum Phytotoxicity: 69%
[3]
  Maximum Phytotoxicity: 100%
[4]
  Maximum Phytotoxicity: 100%
GA-M4M12 × RHA274
  Maximum Phytotoxicity: 71%
GA-M4M11 × RHA274
  Maximum Phytotoxicity: 75%
GA-M4M7 × RHA274
  Maximum Phytotoxicity: 74%
BC3-M4M12
  Maximum Phytotoxicity: 35%
BC3-M4M11
  Maximum Phytotoxicity: 55%
BC3-M4M7
  Maximum Phytotoxicity: 51%
[5]
  tolerance of homozygous resistant lines compared with heterozygous hybrids: the homozygous resistant lines were more tolerant
[5]; triflusulfuron-methyl at 20 g a.i./ha
  tolerance of homozygous resistant inbred lines I, J, K: less susceptible than the standards

## COc1cc(OC)nc(Sc2cccc(Cl)c2C(=O)O)n1 [Pyrithiobac-sodium]
M5M7; in vivo
  Maximum Phytotoxicity: 37.5%
M5M11; in vivo
  Maximum Phytotoxicity: 50%
M5M12; in vivo
  Maximum Phytotoxicity: 40%
BC4-M5M7; in vivo
  Maximum Phytotoxicity: 35%
BC4-M5M11; in vivo
  Maximum Phytotoxicity: 42.5%
BC4-M5M12; in vivo
  Maximum Phytotoxicity: 40%
[1]
  tolerance of the mutants: somewhat sensitive

## CCS(=O)(=O)c1nc2ccccn2c1S(=O)(=O)NC(=O)Nc1nc(OC)cc(OC)n1 [Sulfosulfuron]
M5M7; in vivo
  Maximum Phytotoxicity: 50%
M5M11; in vivo
  Maximum Phytotoxicity: 60%
M5M12; in vivo
  Maximum Phytotoxicity: 65%
BC4-M5M7; in vivo
  Maximum Phytotoxicity: 47.5%
BC4-M5M11; in vivo
  Maximum Phytotoxicity: 57.5%
BC4-M5M12; in vivo
  Maximum Phytotoxicity: 50%
[1]
  tolerance of the mutants: somewhat sensitive
